In ChEMBL document CHEMBL3885881, “DrugMatrix”:

Species on record: Rattus norvegicus
Experiment: DrugMatrix - Regimen: Daily Repeat
Format: toxicity, organism-based, Sprague-Dawley
Parameters: regimen Daily Repeat, gender Male, age 6-8 weeks
Conditions: in vivo, po, route oral GAVAGE, vehicle 100 % WATER; for ABSOLUTE BASOPHIL / ABSOLUTE EOSINOPHIL / ABSOLUTE LYMPHOCYTE / ABSOLUTE MONOCYTE / ABSOLUTE SEGMENTED NEUTROPHIL / BASOPHIL / EOSINOPHIL / ERYTHROCYTE COUNT / HEMATOCRIT / HEMOGLOBIN / LEUKOCYTE COUNT / LYMPHOCYTE / MEAN CORPUSCULAR HEMOGLOBIN / MEAN CORPUSCULAR HEMOGLOBIN CONCENTRATION / MEAN CORPUSCULAR VOLUME / MONOCYTE / NEUTROPHIL / NUCLEATED RED BLOOD CELLS / PLATELET COUNT: tissue Blood; for ALANINE AMINOTRANSFERASE / ALBUMIN / ALKALINE PHOSPHATASE / ASPARTATE AMINOTRANSFERASE / BLOOD UREA NITROGEN / CARBON DIOXIDE / CHLORIDE / CHOLESTEROL / CREATINE PHOSPHOKINASE / CREATININE / GLUCOSE / LACTATE DEHYDROGENASE / LIPASE / PHOSPHORUS / POTASSIUM / SODIUM / TOTAL BILIRUBIN / TOTAL PROTEIN / URIC ACID: tissue Plasma
[1] = 0 mg/kg, 72 h, dose level Control, time 3 day
[2] = 0 mg/kg, 120 h, dose level Control, time 5 day
[3] = 1 mg/kg, 72 h, dose level Low, time 3 day

With CN1C2CCCC1CC(NC(=O)c1nn(C)c3ccccc13)C2 (centres undefined) [GRANISETRON] the “ABSOLUTE BASOPHIL” value [1] was 0 CELLS/uL, the “ABSOLUTE EOSINOPHIL” value [1] was 0 CELLS/uL and the “ABSOLUTE LYMPHOCYTE” value [1] was 8482.5 CELLS/uL. For the same compound, the “ABSOLUTE MONOCYTE” value [1] was 63.83 CELLS/uL, the “ABSOLUTE SEGMENTED NEUTROPHIL” value [1] was 887 CELLS/uL and the BASOPHIL [1] was 0%. For the same compound, the EOSINOPHIL [1] was 0%, the “ERYTHROCYTE COUNT” value [1] was 5.49 x10E6/uL and the HEMATOCRIT [1] was 34.5%. The HEMOGLOBIN [1] was 13.33 G/DL, the “LEUKOCYTE COUNT” value [1] was 9.43 x10E3/uL and the LYMPHOCYTE [1] was 90.17%. The “MEAN CORPUSCULAR HEMOGLOBIN” value [1] was 24.3 pg, the “MEAN CORPUSCULAR HEMOGLOBIN CONCENTRATION” value [1] was 38.63 G/DL and the “MEAN CORPUSCULAR VOLUME” value [1] was 62.88 fL. The MONOCYTE [1] was 0.67%, the NEUTROPHIL [1] was 9.17% and the “NUCLEATED RED BLOOD CELLS” value [1] was 0.67 /100WBC. For the same compound, the “PLATELET COUNT” value [1] was 1022.83 x10E3/uL, the “ALANINE AMINOTRANSFERASE” value [1] was 50.5 u/L and the ALBUMIN [1] was 4.08 G/DL. The “ALKALINE PHOSPHATASE” value [1] was 368.33 u/L, the “ASPARTATE AMINOTRANSFERASE” value [1] was 87.5 u/L and the “BLOOD UREA NITROGEN” value [1] was 12.83 mg/dL. For the same compound, the “CARBON DIOXIDE” value [1] was 32.83 mmol/L, the CHLORIDE [1] was 99.67 MEQ/L and the CHOLESTEROL [1] was 79.67 mg/dL. For the same compound, the “CREATINE PHOSPHOKINASE” value [1] was 585 u/L, the CREATININE [1] was 0.22 mg/dL and the GLUCOSE [1] was 135.67 mg/dL. For the same compound, the “LACTATE DEHYDROGENASE” value [1] was 171 u/L, the LIPASE [1] was 9.5 u/L and the PHOSPHORUS [1] was 11.18 mg/dL. For the same compound, the POTASSIUM [1] was 6.25 MEQ/L, the SODIUM [1] was 144.87 MEQ/L and the “TOTAL BILIRUBIN” value [1] was 0.2 mg/dL. For the same compound, the “TOTAL PROTEIN” value [1] was 6.08 G/DL, the “URIC ACID” value [1] was 0.65 mg/dL and the “ABSOLUTE BASOPHIL” value [2] was 0 CELLS/uL. The “ABSOLUTE EOSINOPHIL” value [2] was 14.5 CELLS/uL, the “ABSOLUTE LYMPHOCYTE” value [2] was 7596.17 CELLS/uL and the “ABSOLUTE MONOCYTE” value [2] was 69.67 CELLS/uL. The “ABSOLUTE SEGMENTED NEUTROPHIL” value [2] was 503 CELLS/uL, the BASOPHIL [2] was 0% and the EOSINOPHIL [2] was 0.17%. The “ERYTHROCYTE COUNT” value [2] was 5.49 x10E6/uL, the HEMATOCRIT [2] was 34.72% and the HEMOGLOBIN [2] was 13.47 G/DL. For the same compound, the “LEUKOCYTE COUNT” value [2] was 8.18 x10E3/uL, the LYMPHOCYTE [2] was 92.17% and the “MEAN CORPUSCULAR HEMOGLOBIN” value [2] was 24.57 pg. For the same compound, the “MEAN CORPUSCULAR HEMOGLOBIN CONCENTRATION” value [2] was 38.82 G/DL, the “MEAN CORPUSCULAR VOLUME” value [2] was 63.3 fL and the MONOCYTE [2] was 1%. The NEUTROPHIL [2] was 6.67%, the “NUCLEATED RED BLOOD CELLS” value [2] was 0 /100WBC and the “PLATELET COUNT” value [2] was 1141 x10E3/uL. The “ALANINE AMINOTRANSFERASE” value [2] was 48.33 u/L, the ALBUMIN [2] was 4.07 G/DL and the “ALKALINE PHOSPHATASE” value [2] was 395.67 u/L. For the same compound, the “ASPARTATE AMINOTRANSFERASE” value [2] was 85.67 u/L, the “BLOOD UREA NITROGEN” value [2] was 15.83 mg/dL and the “CARBON DIOXIDE” value [2] was 31.33 mmol/L. For the same compound, the CHLORIDE [2] was 100.83 MEQ/L, the CHOLESTEROL [2] was 62.33 mg/dL and the “CREATINE PHOSPHOKINASE” value [2] was 248.33 u/L. For the same compound, the CREATININE [2] was 0.2 mg/dL, the GLUCOSE [2] was 135.67 mg/dL and the “LACTATE DEHYDROGENASE” value [2] was 141.33 u/L. The LIPASE [2] was 9.5 u/L, the PHOSPHORUS [2] was 10.73 mg/dL and the POTASSIUM [2] was 6.07 MEQ/L. For the same compound, the SODIUM [2] was 145.35 MEQ/L, the “TOTAL BILIRUBIN” value [2] was 0.22 mg/dL and the “TOTAL PROTEIN” value [2] was 6.12 G/DL. The “URIC ACID” value [2] was 0.63 mg/dL, the “ABSOLUTE BASOPHIL” value [3] was 0 CELLS/uL and the “ABSOLUTE EOSINOPHIL” value [3] was 35.67 CELLS/uL. For the same compound, the “ABSOLUTE LYMPHOCYTE” value [3] was 7674 CELLS/uL, the “ABSOLUTE MONOCYTE” value [3] was 0 CELLS/uL and the “ABSOLUTE SEGMENTED NEUTROPHIL” value [3] was 690.33 CELLS/uL. The BASOPHIL [3] was 0%, the EOSINOPHIL [3] was 0.33% and the “ERYTHROCYTE COUNT” value [3] was 5.55 x10E6/uL. The HEMATOCRIT [3] was 33.93%, the HEMOGLOBIN [3] was 12.9 G/DL and the “LEUKOCYTE COUNT” value [3] was 8.4 x10E3/uL. For the same compound, the LYMPHOCYTE [3] was 92%, the “MEAN CORPUSCULAR HEMOGLOBIN” value [3] was 23.3 pg and the “MEAN CORPUSCULAR HEMOGLOBIN CONCENTRATION” value [3] was 38.03 G/DL. The “MEAN CORPUSCULAR VOLUME” value [3] was 61.3 fL, the MONOCYTE [3] was 0% and the NEUTROPHIL [3] was 7.67%. For the same compound, the “NUCLEATED RED BLOOD CELLS” value [3] was 0.33 /100WBC, the “PLATELET COUNT” value [3] was 1023.67 x10E3/uL and the “ALANINE AMINOTRANSFERASE” value [3] was 49 u/L. For the same compound, the ALBUMIN [3] was 4 G/DL, the “ALKALINE PHOSPHATASE” value [3] was 371 u/L and the “ASPARTATE AMINOTRANSFERASE” value [3] was 82.67 u/L. The “BLOOD UREA NITROGEN” value [3] was 11.67 mg/dL, the “CARBON DIOXIDE” value [3] was 34 mmol/L and the CHLORIDE [3] was 99.33 MEQ/L. The CHOLESTEROL [3] was 76.33 mg/dL, the “CREATINE PHOSPHOKINASE” value [3] was 380.33 u/L and the CREATININE [3] was 0.29 mg/dL. The GLUCOSE [3] was 141.67 mg/dL, the “LACTATE DEHYDROGENASE” value [3] was 138.33 u/L and the LIPASE [3] was 12 u/L. It also gave a PHOSPHORUS [3] of 10.8 mg/dL, a POTASSIUM [3] of 5.77 MEQ/L and an SODIUM [3] of 145.17 MEQ/L. The “TOTAL BILIRUBIN” value [3] was 0.1 mg/dL, the “TOTAL PROTEIN” value [3] was 5.83 G/DL and the “URIC ACID” value [3] was 0.57 mg/dL.
